Data: patent publication US6512000B1, “Aminocarbonyl-substituted benzimidazoles having tryptase-inhibitory activity” (Boehringer Ingelheim Pharma KG, priority 1999, dated 2003)

Biological target: T1, rh beta tryptase (Homo sapiens, UniProt P20231)
T1 construct: purchased Promega
Assay: Tryptase inhibition test (cleavage of N-p-tosyl-Gly-Pro-Lys-para-nitroaniline, p-nitroaniline measured at 405 nm)
Format: biochemical
Conditions: pH 7.4, 37° C.; for % Inhibition (10 μM): inhibition of rh beta tryptase at 10 μM test substance, substrate N-p-tosyl-Gly-Pro-Lys-para-nitroaniline 0.6 mM, 5 minutes; for IC50: concentration at which 50% of the tryptase enzyme activity is inhibited, substrate 0.6 mM
Procedure: The compounds according to the invention are characterised by their tryptase-inhibiting activity. This ability to inhibit tryptase was investigated using the test described below.
The measurement is carried out in Tris HCl buffer (100 mM), which additionally contains calcium (5 mM) and heparin ([…]), at pH 7.4. The standard used is rh beta tryptase which may be obtained commercially from Promega, for example. The substrate used is N-p-tosyl-Gly-Pro-Lys-para-nitroaniline in a concentration of 0.6 mM. The substrate is digested with tryptase to form p-nitroaniline which can be measured at 405 nm. Usually, an incubation period of 5 minutes and an incubation temperature of 37° C. are chosen. The enzyme activity used is 0.91 U/ml. The measurements are carried out in an Autoanalyser (Cobas Bio) made by Hofmann LaRoche. The potential inhibitory substances are used in concentrations of 10 μM in the screening, the inhibition of the tryptase being given in percent. The IC50 is determined at over 70% inhibition (concentration at which 50% of the enzyme activity is inhibited). After 5 minutes' pre-incubation of the potential inhibitory substances, the substrate is added to start the reaction, the formation of p-nitroaniline being taken as a measurement of the enzyme activity after 5 minutes, after testing the linearity.
The data obtained after the above test has been carried out (% inhibition) are assembled in Table 25 for the compounds according to the invention. The IC50 values obtained for the compounds according to the invention can be found in Table 26.
Table 26 contains the IC50 binding values obtained for the compounds according to the invention. These were measured as described above.

T1 sequence (P20231 31-275): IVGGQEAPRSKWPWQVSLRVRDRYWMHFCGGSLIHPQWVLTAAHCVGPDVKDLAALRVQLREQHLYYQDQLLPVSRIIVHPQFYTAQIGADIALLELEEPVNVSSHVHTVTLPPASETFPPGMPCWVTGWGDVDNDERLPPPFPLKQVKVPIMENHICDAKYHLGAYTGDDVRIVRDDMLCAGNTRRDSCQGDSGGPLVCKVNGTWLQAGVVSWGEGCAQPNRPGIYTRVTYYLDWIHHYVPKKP

Row | Substance | % Inhibition (10 μM) [%] | IC50 [nM]
1 | 2-[2-(4-amidinophenyl)ethyl]-1-(2 thiophenyl-methyl)-benzimidazol-5-yl-carboxylic acid-N-[4-(amino-methyl)-benzyl]-N-(3-pyridyl)-amide [Example 147] | 51 | –
2 | 2-[2-(4-amidinophenyl)ethyl]-1-(2-cyclohexylethyl)-benzimidazol-5-yl-carboxylic acid-N-[4-(amino-methyl)-benzyl]-N-(2-pyridyl)-amide [Example 121] | 52 | –
3 | 2-[2-(4-amidinophenyl)ethyl]-1-(2-cyclohexylethyl)-benzimidazol-5-yl-carboxylic acid-N-[4-(amino-methyl)-benzyl]-N-(3-pyridyl)-amide [Example 137] | 52 | –
4 | 2-[2-(4-amidinophenyl)ethyl]-1-(2-phenylethyl)-benzimidazol-5-yl-carboxylic acid-N-[4-(amino-methyl)-benzyl]-N-(2-pyridyl)-amide [Example 123] | 60 | –
5 | 2-[2-(4-amidinophenyl)ethyl]-1-(2-phenylethyl)-benzimidazol-5-yl-carboxylic acid-N-[4-(amino-methyl)-benzyl]-N-(3-pyridyl)-amide [Example 139] | 76 | –
6 | 2-[2-(4-amidinophenyl)ethyl]-1-(2-thiophenyl-methyl)-benzimidazol-5-yl-carboxylic acid-N-(2-aminoethyl)-N-(2-pyridyl)-amide [Example 323] | 59 | –
7 | 2-[2-(4-amidinophenyl)ethyl]-1-(3-di-n-butylaminopropyl)-benzimidazol-5-yl-carboxylic acid-N-[4-(amino-methyl)-benzyl]-N-(2-pyridyl)-amide [Example 119] | 57 | –
8 | 2-[2-(4-amidinophenyl)ethyl]-1-(3-di-n-butylaminopropyl)-benzimidazol-5-yl-carboxylic acid-N-[4-(amino-methyl)-benzyl]-N-(3-pyridyl)-amide [Example 135] | 64 | –
9 | 2-[2-(4-amidinophenyl)ethyl]-1-(3-ethoxypropyl)-benzimidazol-5-yl-carboxylic acid-N-(2-aminoethyl)-N-(3-pyridyl)-amide [Example 326] | 51 | 288
10 | 2-[2-(4-amidinophenyl)ethyl]-1-(3-ethoxypropyl)-benzimidazol-5-yl-carboxylic acid-N-[4-(amino-methyl)-benzyl]-N-(2-pyridyl)-amide [Example 118] | 71 | 304
11 | 2-[2-(4-amidinophenyl)ethyl]-1-(3-ethoxypropyl)-benzimidazol-5-yl-carboxylic acid-N-[4-(amino-methyl)-benzyl]-N-(3-pyridyl)-amide [Example 134] | 69 | 231
12 | 2-[2-(4-amidinophenyl)ethyl]-1-(4-methylbenzyl)-benzimidazol-5-yl-carboxylic acid-N-[4-(amino-methyl)-benzyl]-N-(2-pyridyl)-amide [Example 125] | 63 | –
13 | 2-[2-(4-amidinophenyl)ethyl]-1-(tetrahydrofuran-2-yl-methyl)-benzimidazol-5-yl-carboxylic acid-N-(2-aminoethyl)-N-(2-pyridyl)-amide [Example 322] | 51 | –
14 | 2-[2-(4-amidinophenyl)ethyl]-1-(tetrahydrofuran-2-yl-methyl)-benzimidazol-5-yl-carboxylic acid-N-[4-(amino-methyl)-benzyl]-N-(2-pyridyl)-amide [Example 130] | 77 | –
15 | 2-[2-(4-amidinophenyl)ethyl]-1-(tetrahydrofuran-2-yl-methyl)-benzimidazol-5-yl-carboxylic acid-N-[4-(amino-methyl)-benzyl]-N-(3-pyridyl)-amide [Example 146] | 65 | –
16 | 2-[2-(4-amidinophenyl)ethyl]-1-[2-(4-chlorophenyl)ethyl]-benzimidazol-5-yl-carboxylic acid-N-[4-(amino-methyl)-benzyl]-N-(2-pyridyl)-amide [Example 124] | 55 | –
17 | 2-[2-(4-amidinophenyl)ethyl]-1-[2-(4-chlorophenyl)ethyl]-benzimidazol-5-yl-carboxylic acid-N-[4-(amino-methyl)-benzyl]-N-(3-pyridyl)-amide [Example 140] | 63 | –
18 | 2-[2-(4-amidinophenyl)ethyl]-1-[3-(benzylcarbonylamino)-propyl]-benzimidazol-5-yl-carboxylic acid-N-(2-aminoethyl)-N-(2-pyridyl)-amide [Example 312] | 55 | –
19 | 2-[2-(4-amidinophenyl)ethyl]-1-[3-(benzylcarbonylamino)-propyl]-benzimidazol-5-yl-carboxylic acid-N-[4-(amino-methyl)-benzyl]-N-(2-pyridyl)-amide [Example 120] | 74 | –
20 | 2-[2-(4-amidinophenyl)ethyl]-1-[3-(benzylcarbonylamino)-propyl]-benzimidazol-5-yl-carboxylic acid-N-[4-(amino-methyl)-benzyl]-N-(3-pyridyl)-amide [Example 136] | 74 | –
21 | 2-[2-(4-amidinophenyl)ethyl]-1-[3-(morpholin-4-yl)-propyl]-benzimidazol-5-yl-carboxylic acid-N-[4-(amino-methyl)-benzyl]-N-(2-fluorobenzyl)-amide [Example 225] | 58 | –
22 | 2-[2-(4-amidinophenyl)ethyl]-1-[3-(morpholin-4-yl)-propyl]-benzimidazol-5-yl-carboxylic acid-N-[4-(amino-methyl)-benzyl]-N-(2-pyridyl)-amide [Example 129] | 63 | –
23 | 2-[2-(4-amidinophenyl)ethyl]-1-[3-(morpholin-4-yl)-propyl]-benzimidazol-5-yl-carboxylic acid-N-[4-(amino-methyl)-benzyl]-N-(3-pyridyl)-amide [Example 145] | 73 | –
24 | 2-[2-(4-amidinophenyl)ethyl]-1-cyclopropylmethyl-benzimidazol-5-yl-carboxylic acid-N-(2-aminoethyl)-N-(2-pyridyl)-amide [Example 314] | 61 | 771
25 | 2-[2-(4-amidinophenyl)ethyl]-1-cyclopropylmethyl-benzimidazol-5-yl-carboxylic acid-N-(2-aminoethyl)-N-(3-pyridyl)-amide [Example 330] | 54 | 503
26 | 2-[2-(4-amidinophenyl)ethyl]-1-cyclopropylmethyl-benzimidazol-5-yl-carboxylic acid-N-[4-(amino-methyl)-benzyl]-N-(2-pyridyl)-amide [Example 122] | 70 | 515
